Test results as given in US4986982A, “Cosmetic composition” (priority 1988, dated 1991).

Columns and labels:
physchem = details: 100 mm phosphate buffer
Protocol: (§1) (i) The chosen ester of pyroglutamic acid was dissolved in aqueous buffer of a selected pH value, to provide a 0.1% w/v solution of the ester;
(§2) (ii) Intact (unhydrolysed) ester was analysed by high performance liquid chromatography at regular time intervals.
(§3) (iii) The log of the amount of the ester remaining intact versus time was plotted to give a straight line response.
(§4) (iv) From this plot, the time required for half of the ester of pyroglutamic acid to be hydrolysed (half of the ester remaining intact), can be determined if necessary by extrapolation.
(§5) *Assay performed in 100 mM phosphate buffer at 30° C.

[1] = Stability of esters of pyroglutamic acid in aqueous buffer (half-life of hydrolysis, intact ester by HPLC)
Protocol: as §1, §2, §3, §4, §5

[2] = Delivery of pyroglutamic acid to the stratum corneum after topical application of tritiated esters to the arms of volunteers (radio-tracer technique); type: in vivo, human; details: [3H] pyroglutamic acid applied topically instead of ester
Text: Accordingly, [^3 H] esters of pyroglutamic acid were each dissolved at 1% w/v in anhydrous ethanol or in an oil-in-water emulsion base. […] The [^3 H] pyroglutamic acid was separated from unchanged ester by chromotography on AG1X8 resin and the amount delivered to the skin expressed as nmoles per mg of stratum corneum protein.

Row | SMILES | half-life (physchem; pH 4) [days] | half-life (physchem; pH 7) [days] | further results
1 | CCOC(=O)C(C)OC(=O)C1CCC(=O)N1 (stereo not shown) [Ethyl-2-[pyroglutamoyloxy]-n-propionate, ethyl-2-[pyroglutamoyloxy]-n-propionate] | 70.8 | 0.375 | –
2 | CCOC(=O)[C@@H]1CCC(=O)N1 [Pyroglutamic acid ethyl ester, pyroglutamic acid ethyl ester] | – | – | half-life ([1]; 100 mm phosphate buffer, pH 4): 458 days; half-life ([1]; 100 mm phosphate buffer, pH 7): 2.42 days; half-life ([1]; aqueous buffer, pH 6.5): 12 days; half-life ([1]; aqueous buffer, pH 6.8): 7 days; half-life ([1]; aqueous buffer, pH 7): 2.4 days; half-life ([1]; aqueous buffer, pH 7.4): 2 days; half-life ([1]; aqueous buffer, pH 7.8): 1 days
3 | CCCCOC(=O)[C@@H]1CCC(=O)N1 [Pyroglutamic acid n-butyl ester, pyroglutamic acid n-butyl ester] | 625 | 3.33 | –
4 | CCCCCCOC(=O)[C@@H]1CCC(=O)N1 [Pyroglutamic acid n-hexyl ester, pyroglutamic acid n-hexyl ester] | 750 | 4 | –
5 | CCCCCCCCOC(=O)[C@@H]1CCC(=O)N1 [Pyroglutamic acid n-octyl ester, pyroglutamic acid n-octyl ester] | 750 | 4 | –
6 | O=C1CCC(C(=O)O)N1 (stereo not shown) [[^3 H] pyroglutamic acid, 2-pyrrolidone-5-carboxylic acid] | – | – | amount of tritiated free acid recovered from the stratum corneum [2]: negligible amount
